Laboratory results published in patent publication US3982931A, “N,N-di-sec.butyl-benzamide herbicides” (priority 1967, dated 1976).

Assays:
[1] = test system: chenopodium album L.; test: herbicidal activity, soil treatment one day after sowing; format: in vivo
[2] = test system: zea mais L. (corn); test: activity on agrarian species, soil treatment one day after sowing; format: in vivo
Description: (§1) The infesting species and the agrarian species have been indicated in Table 1 by letters, as follows:
(§2) Method of evaluation of the results (of tests):
(§3) 0 = no activity and no difference with respect to the control;
(§4) 1 slight differences with respect to the control;
(§5) 3 = considerable activity with damages that definitely impair the further development of most of the small plants; an activity degree already useful for practical purposes;
(§6) 4 = maximum of activity with lack of germination or total containment of the small plants in the emerging stage.
(§7) In the case of an intermediate activity between two classes of the scale, both values are recorded with the one which corresponds to the preeminent activity preceding.
(§8) TABLE 2 reports the activity data of other compounds that fall within the class which is the object of this invention.
(§9) TABLE 3 reports data on the herbicidal activity against infesting herbs, while TABLE 4 reports data concerning the activity on useful species of agricultural cultivations. These tables employ the criterion explained previously. The product was spread on the soil one day after sowing, in quantities of 1, 3, 6, 8, 10, 12 and 14 kg/ha.

[3] = test system: pisum sativum L. (pea); test: as above; format: in vivo
Description: as §1
L = pisum sativum L. (pea)
as §2, §3, §4, §5, §6, §7, §8
TABLE 3 reports data on the herbicidal activity against infesting herbs, while TABLE 4 reports data concerning the activity on useful species of agricultural cultivations. These tables employ the criterion explained previously. […]

[4] = test system: amaranthus retroflexus L.; test: herbicidal activity, soil treatment one day after sowing; format: in vivo
[5] = test system: solanum Lycopersicum L.; test: activity on agrarian species, soil treatment one day after sowing; format: in vivo
Description: as §1
M = solanum Lycopersicum L.
as §2, §3, §4, §5, §6
In the case of an intermediate activity between two classes of the scale, both values are recorded with the one which corresponds to the preeminent activity preceding. […]

[6] = test system: echinocloa crus-galli R.S.; test: herbicidal activity, soil treatment one day after sowing; format: in vivo
[7] = test system: beta vulgaris L. (sugar-beet); test: activity on agrarian species, soil treatment one day after sowing; format: in vivo
Description: as §1
H = beta vulgaris L. (sugar-beet)
as §2, §3, §4, §5, §6, §7, §8, §9

[8] = test system: phaseolus vulgaris (bean); test: as above; format: in vivo, Phaseolus vulgaris L.
Description: as §1
I = phaseolus vulgaris (bean)
as §2, §3, §4, §5, §6, §7, §8, §9

[9] = test system: artemisia vulgaris L.; test: herbicidal activity, soil treatment one day after sowing; format: in vivo
[10] = test system: oryza sativa L. (rice); test: activity on agrarian species, soil treatment one day after sowing; format: in vivo
Description: as §1
P = oryza sativa L. (rice)
as §2, §3, §4, §5, §6, §7, §8, §9

[11] = test system: setaria glauca L.; test: herbicidal activity, soil treatment one day after sowing; format: in vivo
[12] = test system: triticum vulgare L. (wheat); test: activity on agrarian species, soil treatment one day after sowing; format: in vivo
Description: as §1
N = triticum vulgare L. (wheat)
as §2, §3, §4, §5, §6, §7, §8, §9

[13] = test system: vicia sativa L.; test: herbicidal activity, soil treatment one day after sowing; format: in vivo
In short: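 Pre-emergence soil treatment one day after sowing; activity scored visually on a […] scale against untreated control, from slight difference (1) to no germination or total containment at emergence (4); intermediate activity recorded as both classes, preeminent value first.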

[14] = test system: avena sativa (oats); test: activity on agrarian species, soil treatment one day after sowing; format: in vivo, Avena sativa L.
Description: as §1, §2, §3, §4, §5, §6, §7, §8, §9

[15] = test system: useful plants; test: phytotoxic action on useful plants (general statements); format: in vivo, useful gramineae; settings: in words
Description: (§10) It is understood that all the data given herein shall have no limiting character on the object of this invention.

[16] = test system: infesting gramineae; test: herbicidal action on infesting plants (general statements); format: in vivo; settings: in words
Description: as §10

Row | Structure (SMILES) | activity on C, 0-4 scale ([1]; 2 kg/ha) | activity on C, 0-4 scale ([1]; 4 kg/ha) | activity on C, 0-4 scale ([1]; 6 kg/ha) | activity on A, 0-4 scale ([4]; 2 kg/ha) | activity on A, 0-4 scale ([4]; 4 kg/ha) | activity on A, 0-4 scale ([4]; 6 kg/ha) | activity on D, 0-4 scale ([6]; 2 kg/ha) | activity on D, 0-4 scale ([6]; 4 kg/ha) | activity on D, 0-4 scale ([6]; 6 kg/ha) | activity on B, 0-4 scale ([9]; 2 kg/ha) | activity on B, 0-4 scale ([9]; 4 kg/ha) | activity on B, 0-4 scale ([9]; 6 kg/ha) | activity on E, 0-4 scale ([11]; 2 kg/ha) | activity on E, 0-4 scale ([11]; 4 kg/ha) | activity on E, 0-4 scale ([11]; 6 kg/ha) | activity on F, 0-4 scale ([13]; 2 kg/ha) | activity on F, 0-4 scale ([13]; 4 kg/ha) | activity on F, 0-4 scale ([13]; 6 kg/ha) | activity on P, 0-4 scale ([10]; in vivo) | activity on O, 0-4 scale ([2]; in vivo) | other results
1 | CCC(C)N(C(=O)c1ccc(Cl)c(Br)c1)C(C)CC (centres unmarked) [PA489, 3-bromo,4-chloro-N,N-di-sec.butyl-benzamide] | 1 | 1-2 | 2 | 1 | 1-2 | 3 | 3-2 | 3-4 | 3-4 | 0-1 | 1 | 3 | 3 | 4-3 | 4 | 0 | 0 | 0-1 |  |  | activity on O, 0-4 scale ([2]; 3 kg/ha): 0; activity on O, 0-4 scale ([2]; 6 kg/ha): 0; activity on L, 0-4 scale ([3]; 3 kg/ha): 0; activity on L, 0-4 scale ([3]; 6 kg/ha): 0; activity on M, 0-4 scale ([5]; 6 kg/ha): 1; activity on H, 0-4 scale ([7]; 6 kg/ha): 1; activity on I, 0-4 scale ([8]; 3 kg/ha): 0; activity on I, 0-4 scale ([8]; 6 kg/ha): 0; activity on P, 0-4 scale ([10]; 3 kg/ha): 0; activity on P, 0-4 scale ([10]; 6 kg/ha): 0; activity on N, 0-4 scale ([12]; 3 kg/ha): 0; activity on N, 0-4 scale ([12]; 6 kg/ha): 0; activity on G, 0-4 scale ([14]; 3 kg/ha): 0; activity on G, 0-4 scale ([14]; 6 kg/ha): 0
2 | CC(C)N(C(=O)c1cc(Cl)cc(Cl)c1Cl)C(C)C [PA302, 2,3,5-trichloro-N,N-di-iso-propyl-benzamide, reference compound] |  |  | 3 |  |  | 2-3 |  |  | 4 |  |  | 2 |  |  | 4 |  |  | 0-1 | 4-3 |  | activity on C, 0-4 scale ([1]; 1 kg/ha): 2; activity on C, 0-4 scale ([1]; 3 kg/ha): 3; activity on A, 0-4 scale ([4]; 3 kg/ha): 2; phytotoxic action on useful plants [15]: phytotoxic action of considerable intensity; herbicidal action [16]: very active; activity on D, 0-4 scale ([6]; 3 kg/ha): 4; activity on B, 0-4 scale ([9]; 1 kg/ha): 1-2; activity on B, 0-4 scale ([9]; 3 kg/ha): 2; activity on E, 0-4 scale ([11]; 1 kg/ha): 3-4; activity on E, 0-4 scale ([11]; 3 kg/ha): 4; activity on F, 0-4 scale ([13]; 1 kg/ha): 0; activity on F, 0-4 scale ([13]; 3 kg/ha): 0-1
3 | CCC(C)N(C(=O)c1c(Cl)cccc1Cl)C(C)CC (centres unmarked) [PA227, 2,6-dichloro-N,N-di-sec.butyl-benzamide] | 1 | 2 | 3-4 | 1-2 | 3 |  | 2 | 3 | 4 | 0-1 | 1-2 | 2 | 2 | 3 | 4 | 0 | 0 | 0 | 0 | 0 | activity on L, 0-4 scale ([3]; in vivo): 0; activity on M, 0-4 scale ([5]; in vivo): 1; activity on H, 0-4 scale ([7]; in vivo): 2; activity on I, 0-4 scale ([8]; in vivo): 0; activity on N, 0-4 scale ([12]; in vivo): 0; activity on G, 0-4 scale ([14]; in vivo): 0
4 | CCN(CC)C(=O)c1ccc(Cl)c(Cl)c1 [PA61, 3,4-dichloro-N,N-diethyl-benzamide, reference compound] | 3 |  | 3 | 3 |  | 3-4 | 1 |  | 3 | 3 |  | 3-4 | 2 |  |  | 2-3 |  | 3 | 3 | 2 | activity on L, 0-4 scale ([3]; in vivo): 1; activity on M, 0-4 scale ([5]; in vivo): 3-4; activity on H, 0-4 scale ([7]; in vivo): 3-4; activity on I, 0-4 scale ([8]; in vivo): 1; activity on N, 0-4 scale ([12]; in vivo): 1; activity on G, 0-4 scale ([14]; in vivo): 1
